Experimental data taken from ChEMBL document CHEMBL2040759, “Design, synthesis and anticancer activity of nitric oxide donating/chalcone hybrids” (2012).

What was measured:
Assay type in all cases: functional
[1] = tested on: HCT-116; experiment: Growth inhibition of human HCT116 cells after 48 hrs by SRB assay; details: HCT-116, 48 h
[2] = tested on: RXF 393; experiment: Growth inhibition of human RXF393 cells after 48 hrs by SRB assay; details: RXF 393, 48 h
[3] = tested on: UACC-257; experiment: Growth inhibition of human UACC257 cells after 48 hrs by SRB assay; details: UACC-257, 48 h
[4] = tested on: SNB-75; experiment: Growth inhibition of human SNB75 cells after 48 hrs by SRB assay; details: SNB-75, 48 h
[5] = tested on: OVCAR-3; experiment: Growth inhibition of human OVCAR3 cells after 48 hrs by SRB assay; details: OVCAR-3, 48 h
[6] = tested on: PC-3; experiment: Growth inhibition of human PC3 cells after 48 hrs by SRB assay; details: PC-3, 48 h
[7] = tested on: MDA-MB-468; experiment: Growth inhibition of human MDA-MB-468 cells after 48 hrs by SRB assay; details: MDA-MB-468, 48 h
[8] = tested on: ACHN; experiment: Growth inhibition of human ACHN cells after 48 hrs by SRB assay
[9] = tested on: IGROV-1; experiment: Growth inhibition of human IGROV1 cells after 48 hrs by SRB assay; details: IGROV-1, 48 h
[10] = tested on: NCI-H522; experiment: Growth inhibition of human NCI-H522 cells after 48 hrs by SRB assay; details: NCI-H522, 48 h
[11] = tested on: SK-MEL-28; experiment: Growth inhibition of human SK-MEL-28 cells after 48 hrs by SRB assay; details: SK-MEL-28, 48 h
[12] = tested on: A549; experiment: Growth inhibition of human A549/ATCC cells after 48 hrs by SRB assay; details: A549, 48 h
[13] = tested on: SK-MEL-2; experiment: Growth inhibition of human SK-MEL-2 cells after 48 hrs by SRB assay; details: SK-MEL-2, 48 h
[14] = tested on: OVCAR-5; experiment: Growth inhibition of human OVCAR5 cells after 48 hrs by SRB assay; details: OVCAR-5, 48 h
[15] = tested on: COLO 205; experiment: Growth inhibition of human COLO205 cells after 48 hrs by SRB assay; details: COLO 205, 48 h
[16] = tested on: HCT-15; experiment: Growth inhibition of human HCT15 cells after 48 hrs by SRB assay; details: HCT-15, 48 h
[17] = tested on: HT-29; experiment: Growth inhibition of human HT-29 cells after 48 hrs by SRB assay; details: HT-29, 48 h
[18] = tested on: 786-0; experiment: Growth inhibition of human 786-0 cells after 48 hrs by SRB assay; details: 786-0, 48 h
[19] = tested on: NCI-H322M; experiment: Growth inhibition of human NCI-H322M cells after 48 hrs by SRB assay
[20] = tested on: MCF7; experiment: Growth inhibition of human MCF7 cells after 48 hrs by SRB assay; details: MCF7, 48 h
[21] = tested on: SF-268; experiment: Growth inhibition of human SF268 cells after 48 hrs by SRB assay; details: SF-268, 48 h
[22] = tested on: T47D; experiment: Growth inhibition of human T47D cells after 48 hrs by SRB assay
[23] = tested on: SNB-19; experiment: Growth inhibition of human SNB19 cells after 48 hrs by SRB assay; details: SNB-19, 48 h
[24] = tested on: MOLT-4; experiment: Growth inhibition of human MOLT4 cells after 48 hrs by SRB assay; details: MOLT-4, 48 h
[25] = tested on: Malme-3M; experiment: Growth inhibition of human MALME-3M cells after 48 hrs by SRB assay
[26] = tested on: HCC 2998; experiment: Growth inhibition of human HCC2998 cells after 48 hrs by SRB assay; details: HCC 2998, 48 h
[27] = tested on: CCRF-CEM; experiment: Growth inhibition of human CCRF-CEM cells after 48 hrs by SRB assay
[28] = tested on: UO-31; experiment: Growth inhibition of human UO31 cells after 48 hrs by SRB assay; details: UO-31, 48 h
[29] = tested on: SR; experiment: Growth inhibition of human SR cells after 48 hrs by SRB assay
[30] = tested on: M14; experiment: Growth inhibition of human M14 cells after 48 hrs by SRB assay; details: M14, 48 h
[31] = tested on: A498; experiment: Growth inhibition of human A498 cells after 48 hrs by SRB assay; details: A498, 48 h
[32] = tested on: K562; experiment: Growth inhibition of human K562 cells assessed as cell growth at 10^-5 M after 48 hrs by SRB assay; details: K562, 48 h, read-out: Activity
[33] = tested on: HL-60(TB); experiment: Growth inhibition of human HL-60(TB) cells assessed as cell growth at 10^-5 M after 48 hrs by SRB assay; details: HL-60, 48 h, read-out: Activity
[34] = read-out: LC50 (the source's name)

O=C(CO[N+](=O)[O-])Nc1ccc(C(=O)/C=C/c2ccc(Cl)cc2)cc1
GI50 [1]: 0.3 µM
TGI [1]: 1.09 µM
CC50 [1, 34]: 3.55 µM
GI50 [2]: 4.82 µM
TGI [2]: 17.8 µM
CC50 [2, 34]: 48.5 µM
GI50 [3]: 4.33 µM
TGI [3]: 15.9 µM
CC50 [3, 34]: 40.7 µM
GI50 [4]: 3.19 µM
TGI [4]: 17.6 µM
CC50 [4, 34]: 47.6 µM
GI50 [5]: 2.22 µM
TGI [5]: 6.55 µM
CC50 [5, 34]: 23.9 µM
GI50 [6]: 2.74 µM
TGI [6]: 14.8 µM
CC50 [6, 34]: 72.9 µM
GI50 [7]: 2.06 µM
TGI [7]: 5.07 µM
CC50 [7, 34]: 17.1 µM
GI50 [8]: 3.3 µM
TGI [8]: 17 µM
CC50 [8, 34]: > 100 µM
GI50 [9]: 13.4 µM
TGI [9]: 30 µM
CC50 [9, 34]: 67.4 µM
GI50 [10]: 2.31 µM
TGI [10]: 8.37 µM
CC50 [10, 34]: 32.8 µM
GI50 [11]: 4.96 µM
TGI [11]: 18.1 µM
CC50 [11, 34]: 49.5 µM
GI50 [12]: 5.71 µM
TGI [12]: 20.6 µM
CC50 [12, 34]: 57.9 µM
GI50 [13]: 9.69 µM
TGI [13]: 23.3 µM
CC50 [13, 34]: 54.7 µM
GI50 [14]: 14.8 µM
TGI [14]: 36 µM
CC50 [14, 34]: 87.8 µM
GI50 [15]: 2.57 µM
TGI [15]: 6.09 µM
CC50 [15, 34]: 21.1 µM
GI50 [16]: 2.03 µM
TGI [16]: 6.53 µM
CC50 [16, 34]: 59.7 µM
GI50 [17]: 2.36 µM
TGI [17]: 6.36 µM
CC50 [17, 34]: > 100 µM
GI50 [18]: 11.6 µM
TGI [18]: 48 µM
CC50 [18, 34]: > 100 µM
GI50 [19]: 10.3 µM
TGI [19]: 22.6 µM
CC50 [19, 34]: 49.6 µM
GI50 [20]: 0.67 µM
TGI [20]: 6.44 µM
CC50 [20, 34]: > 100 µM
GI50 [21]: 2.62 µM
TGI [21]: 11.7 µM
CC50 [21, 34]: 38 µM
GI50 [22]: 3.26 µM
TGI [22]: 14.9 µM
CC50 [22, 34]: 58.3 µM
GI50 [23]: 4.11 µM
TGI [23]: 18.4 µM
CC50 [23, 34]: 64 µM
GI50 [24]: 4.68 µM
TGI [24]: 69.4 µM
CC50 [24, 34]: > 100 µM
GI50 [25]: 2.13 µM
TGI [25]: 6.61 µM
CC50 [25, 34]: 76.2 µM
GI50 [26]: 1.75 µM
TGI [26]: 3.64 µM
CC50 [26, 34]: 7.57 µM
GI50 [27]: 2.73 µM
TGI [27]: 16.5 µM
CC50 [27, 34]: > 100 µM
GI50 [28]: 1.52 µM
TGI [28]: 12.1 µM
CC50 [28, 34]: 38.5 µM
GI50 [29]: 3.64 µM
TGI [29]: > 100 µM
CC50 [29, 34]: > 100 µM
GI50 [30]: 2.05 µM
TGI [30]: 4.96 µM
CC50 [30, 34]: 17.9 µM
GI50 [31]: 15.4 µM
TGI [31]: 54.9 µM
CC50 [31, 34]: > 100 µM

O=C(CO[N+](=O)[O-])Nc1ccc(C(=O)/C=C/c2ccc3c(c2)OCO3)cc1
growth at 10 µM [32]: 59.1%
growth at 10 µM [33]: 73.7%
